Publication PMC5578999, “Novel quinolone chalcones targeting colchicine-binding pocket kill multidrug-resistant cancer cells by inhibiting tubulin activity and MRP1 function” (Scientific Reports, 2017)

Assays:
MDA-MB-231TaxR = experiment: SRB cell viability, paclitaxel-resistant cells; assay type: cell-based; settings: MDA-MB-231TaxR vs MDA-MB-231
Protocol: (§1) Dr. Susan Cole (Queen’s Universit y, Kingston, Ontario, Canada). The pacl itaxel-resistant MDA-MB-231TaxR cell line was generated in house b y culturing MDA-MB-231 cells (purchased from ATCC and authen ticated ) in the gradual l y incr easi ng con centr ations of pacl itax el until the concentration reached to 100 nM. Cell line authentication was carried out by Genetica DNA Laboratories (Burlington, NC) using a short tandem repeat (STR) profiling method (March 2015; […]
(§2) Cell viability, com binational i ndex and cell synchronization
(§3) Cell viability and proliferation were ex amined using a s ulforhodamine B (SRB) assa y as described previousl y (Hu et al., 2008). IC 50 values were calculat ed from si gmoidal dose-response cu rves gen erat ed b y at least two indepen dent ex periments , with each quadruplicate samples, using GraphPad Prism v.5.04 software (GraphPad Software, Inc, La J olla, CA). […]
(§4) (Romero and Lee, 2008), and the cells were r eleas ed in to complete medium in the absence (sham) or presence of compound(s). […]

KB-C-2 [1] = experiment: SRB cell viability, MDR1-overexpressing cells; assay type: cell-based, human; settings: for Resistance (fold): KB-C-2 vs KB-C-1, Table S1
[2] = system: MDA-MB-231 triple-negative metastatic breast cancer cells; experiment: Antitumor activity in engrafted athymic mice; assay type: in vivo, ATH490 athymic mice
Protocol: The animals were then immediately euthanized by carbon dioxide. […]
Supplementary Table S2. A typical treatment protocol of engrafted mice with CTR alone or in
combination with paclitaxel.
Treatment Dos a ge Frequ enc y Route Notes
Sham control Highest volume E v e r y 3-4 d a ys Intraperitoneal (I.P.) Vehicle onl y
Taxa 10 mg/kgb Once/week Intravenous ( I.V.)
CTR-17 (30) 30 mg/kg E v e r y 3-4 d a ys I. P .
CTR-20 (30) 30 mg/kg E v e r y 3-4 d a ys I. P .
Supplementary Table S 3: Antitumor activity of CTR -17 and CTR -20, alone or in combination
a Tax: paclitaxel. b mg per kg of bod y wei ght. c unit is mm 3. […]

KB-C-2 [3] = experiment: SRB cell viability, MDR1-overexpressing cells; assay type: cell-based; settings: Homo sapiens, KB-C2; KB-C-2; Table S1
Protocol: (§5) human epidermoid carcinoma cell line and KB-C2, an isogenic MDR1- overexpressing drug-resistant cell line, were kindl y provided b y Dr. Amit K Tiwari, the Universit y of Toledo, OH. […]
(§6) Cell line authentication was carried out by Genetica DNA
as §2
(§7) Cell viability and proliferation were ex amined using a s ulforhodamine B (SRB) assa y as […]
(§8) IC 50 values were calculat ed from si gmoidal dose-response cu rves gen erat ed b y at least two indepen dent ex periments , with each quadruplicate samples, using GraphPad Prism v.5.04 software (GraphPad Software, Inc, La J olla, CA). […]
(§9) (sham) or presence of compound(s). […]

[4] = mouse, in vivo
Protocol: Athymic mice engrafted with tumor cells were used to determine antitumor activity. […] When tumor size reached 5–6 mm in diameter (n = 4–5 per group), mice were randomly assigned into several groups and vehicle-treated or treated with drug(s). […] Animals were monitored for food and water consumption every day, and their body weights and tumor volumes were measured twice per week. Tumor volumes were measured with a digital caliper and were determined by the following formula: ½ length × width^2. Blood samples were collected via cardiac puncture and processed for ALT and AST measurements. The animals were then immediately euthanized by carbon dioxide. Tumors and vital organs (spleen, kidney, liver and lung) were harvested and fixed in 10% buffered formalin at 4 °C overnight before being processed for a paraffin embedding. The paraffin-embedded blocks were then sectioned to 4–5 µm thick. Each section was stained with haematoxylin and eosin (H&E).

KB-C-1 = experiment: SRB cell viability, parental cells; assay type: cell-based; settings: Homo sapiens, KBC-1; KB-C-1; Table S1
Protocol: as §5, §6, §2, §7, §8, §9

H69AR = experiment: SRB cell viability, multidrug-resistant cells; assay type: cell-based; settings: Table S1; for Resistance (fold): H69AR vs SW-1271; for IC50: Homo sapiens, H69AR
Protocol: as §6, §2, §7, §8, §9

SW-1271 = experiment: SRB cell viability; assay type: cell-based; settings: SW1271, Table S1
Protocol: as §6, §2, §7, §8, §9

MDA-MB-231 = experiment: SRB cell viability and combinational index; assay type: cell-based; settings: Homo sapiens; MDA-MB-231 cells
Protocol: as §1, §2, §3
737/ABT-199 w ere us ed at or below IC 50 . The combinational index (CI) w as calculat ed as previousl y described (Chou, 2006). […]
as §4

MRP1 [5] = target: T1, MRP1 (Homo sapiens, UniProt P33527); experiment: Rh123 dye efflux assay, HEK293-MRP1 cells; assay type: cell-based; settings: 22 µmol/L of drug, DMSO control 39.6%
T1 construct: expressed in transfected cells; host or cells: HEK293-MRP1 (gift of Dr. Susan Cole)
T1 sequence (P33527 whole entry): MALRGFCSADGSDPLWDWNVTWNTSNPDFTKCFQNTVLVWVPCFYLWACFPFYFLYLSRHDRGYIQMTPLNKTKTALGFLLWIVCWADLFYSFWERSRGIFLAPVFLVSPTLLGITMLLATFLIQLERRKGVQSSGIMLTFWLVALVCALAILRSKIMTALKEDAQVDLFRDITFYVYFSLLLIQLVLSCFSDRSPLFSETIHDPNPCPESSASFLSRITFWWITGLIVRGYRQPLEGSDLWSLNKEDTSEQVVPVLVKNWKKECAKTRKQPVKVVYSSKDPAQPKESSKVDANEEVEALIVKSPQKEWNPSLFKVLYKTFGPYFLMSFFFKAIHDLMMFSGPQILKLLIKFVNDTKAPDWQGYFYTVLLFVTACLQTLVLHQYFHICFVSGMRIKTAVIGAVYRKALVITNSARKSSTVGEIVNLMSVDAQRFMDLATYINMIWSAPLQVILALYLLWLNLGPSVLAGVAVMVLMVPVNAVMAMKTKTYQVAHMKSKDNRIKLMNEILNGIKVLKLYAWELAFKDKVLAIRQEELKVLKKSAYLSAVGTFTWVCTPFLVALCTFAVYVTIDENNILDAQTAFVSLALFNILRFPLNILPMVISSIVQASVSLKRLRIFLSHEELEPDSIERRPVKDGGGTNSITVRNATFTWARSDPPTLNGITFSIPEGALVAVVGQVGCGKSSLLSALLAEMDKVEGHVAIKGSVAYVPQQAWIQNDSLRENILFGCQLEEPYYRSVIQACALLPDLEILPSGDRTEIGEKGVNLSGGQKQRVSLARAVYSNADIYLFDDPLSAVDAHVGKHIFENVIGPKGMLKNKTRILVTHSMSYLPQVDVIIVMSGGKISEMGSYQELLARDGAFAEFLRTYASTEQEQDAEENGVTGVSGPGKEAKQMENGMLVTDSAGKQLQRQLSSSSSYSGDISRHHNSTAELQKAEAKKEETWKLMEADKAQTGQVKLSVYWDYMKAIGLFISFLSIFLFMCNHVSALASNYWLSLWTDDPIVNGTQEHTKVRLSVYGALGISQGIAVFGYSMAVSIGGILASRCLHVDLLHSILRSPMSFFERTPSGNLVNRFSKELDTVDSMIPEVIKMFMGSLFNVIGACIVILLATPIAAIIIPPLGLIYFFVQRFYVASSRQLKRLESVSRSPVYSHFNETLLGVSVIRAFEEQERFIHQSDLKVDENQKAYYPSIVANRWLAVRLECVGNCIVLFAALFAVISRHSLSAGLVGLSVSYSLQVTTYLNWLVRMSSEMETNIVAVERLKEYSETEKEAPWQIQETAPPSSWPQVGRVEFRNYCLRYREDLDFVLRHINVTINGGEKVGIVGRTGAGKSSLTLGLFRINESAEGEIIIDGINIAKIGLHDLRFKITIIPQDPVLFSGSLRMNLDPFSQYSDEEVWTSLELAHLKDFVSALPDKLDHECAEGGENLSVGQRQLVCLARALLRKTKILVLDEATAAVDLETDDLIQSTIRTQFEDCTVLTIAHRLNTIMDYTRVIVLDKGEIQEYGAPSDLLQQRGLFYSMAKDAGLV
Protocol: Rhodamine123 (Rh123) drug efflux was carried out using a Multidrug-Resistance Direct Dye Efflux Activity Kit (Millipore, Darmstadt, Germany), with some modifications. […] Reading was carried out with a Beckman Coulter FC500 flow cytometer.

MRP1 [6] = target: T1, MRP1; experiment: Calcein-AM retention assay, HEK293-MRP1 cells; assay type: cell-based; settings: 22 µmol/L, DMSO control 52%
HEK293-MRP1 = experiment: SRB cell viability, MRP1-overexpressing cells; assay type: cell-based, human; settings: HEK293-MRP1 vs HEK293
Description: Parental HEK293 and M RP1- overexpressing HEK293- MRP1 isogenic cel ls were kind gifts of Dr. Susan Cole (Queen’s Universit y, Kingston, Ontario, Canada). […]
as §2, §7, §8, §9

Compound	IC50 (KB-C-2 [3])	IC50 (SW-1271)	IC50 (MDA-MB-231)	resistance ratio of KB-C-2 vs KB-C-1 cells (KB-C-2 [1])	Resistance (fold) (KB-C-2 [1])	IC50 (KB-C-1)	Resistance (fold) (H69AR)	IC50 (H69AR)	also measured
CC(=O)O[C@H]1C(=O)[C@@]2(C)[C@H]([C@H](OC(=O)c3ccccc3)[C@]3(O)C[C@H](OC(=O)[C@H](O)[C@@H](NC(=O)c4ccccc4)c4ccccc4)C(C)=C1C3(C)C)[C@]1(OC(C)=O)CO[C@@H]1C[C@@H]2O [paclitaxel, reference compound]	23.08 ± 0.21 nM	4.51 ± 0.71 nM		11.48 folds	11.48 fold	2.01 ± 0.17 nM	2.44 fold	11 ± 2.6 nM	resistance of MDA-MB-231TaxR (MDA-MB-231TaxR): 114 times; tumor volume Day 0 ([2]; Tax 10 mg/kg i.v. once/week, CTR 30 mg/kg i.p. every 3-4 days, combinations Tax 5 + CTR 15 mg/kg once/week): 91.84 mm3; tumor volume Day 6 ([2]; Tax 10 mg/kg i.v. once/week, CTR 30 mg/kg i.p. every 3-4 days, combinations Tax 5 + CTR 15 mg/kg once/week, sham 105.03): 90.11 mm3; tumor volume Day 14 ([2]; same doses, sham 136.66): 94.66 mm3; tumor volume Day 17 ([2]; same doses, sham 162.62): 92.33 mm3; tumor volume Day 20 ([2]; same doses, sham 192.69): 81.66 mm3; tumor volume Day 24 ([2]; same doses, sham 268.08): 95.61 mm3; tumor volume Day 27 ([2]; same doses, sham 426.87): 139.41 mm3; tumor volume Day 30 ([2]; same doses, sham 557.66): 170.36 mm3; mice showing presence of hyaline in kidney [4]: one in four mice
CC[C@]1(O)C[C@@H]2CN(CCc3c([nH]c4ccccc34)[C@@](C(=O)OC)(c3cc4c(cc3OC)N(C)[C@H]3[C@@](O)(C(=O)OC)[C@H](OC(C)=O)[C@]5(CC)C=CCN6CC[C@]43[C@@H]65)C2)C1 [vinblastine]	9.27 ± 3.22 nM	1.75 ± 0.21 nM		15.20 folds	15.20 fold	0.61 ± 0.09 nM	5.82 fold	10.2 ± 1.97 nM	
COc1cc2c(c(OC)c1OC)-c1ccc(OC)c(=O)cc1[C@@H](NC(C)=O)CC2 [colchicine]									Rh123 retention (MRP1 [5]): 77.6%; calcein-AM retained in the cells (MRP1 [6]): 59%; resistance of MRP1-overexpressing HEK293 cells (HEK293-MRP1): approximately 3.5 fold

Now from value to compound, other results behind:

IC50 (KB-C-2 [3])	IC50 (SW-1271)	IC50 (MDA-MB-231)	Compound	resistance ratio of KB-C-2 vs KB-C-1 cells (KB-C-2 [1])	Resistance (fold) (KB-C-2 [1])	IC50 (KB-C-1)	Resistance (fold) (H69AR)	IC50 (H69AR)	also measured
		11600 ± 1130 nM	CC1(C)CCC(CN2CCN(c3ccc(C(=O)NS(=O)(=O)c4ccc(NCC5CCOCC5)c([N+](=O)[O-])c4)c(Oc4cnc5[nH]ccc5c4)c3)CC2)=C(c2ccc(Cl)cc2)C1 [ABT-199]						
		28500 ± 3990 nM	CN(C)CC[C@H](CSc1ccccc1)Nc1ccc(S(=O)(=O)NC(=O)c2ccc(N3CCN(Cc4ccccc4-c4ccc(Cl)cc4)CC3)cc2)cc1[N+](=O)[O-] [ABT-737]						
